Measured values reported in patent publication US11834431B2, “Crystals of cyclic amine derivative and pharmaceutical use thereof” (Toray Industries, Inc., priority 2016, dated 2023).

Legend:
[1] = test system: spinal nerve ligation model rats (neuropathic pain model rats); experiment: Analgesic effect on allodynia in spinal nerve ligation model rats (von Frey, 50% response threshold); assay type: in vivo, rat; settings: oral 10 mg/kg, measured 3 hours after administration, 8 days after ligation, compared to negative control group
Procedure: Analgesic effects of the crystal of compound (I) or the pharmacologically acceptable salt thereof upon neuropathic pain were evaluated using spinal nerve ligation model rats (Kim and Chung, Pain, 1992, vol. 50, p. 355). Form A crystal of compound (I) was used as a crystal of compound (I) or the pharmacologically acceptable salt thereof for evaluation.
The above model rats were prepared as follows. In experiments, 6-to 7-week-old SD male rats were used for 5 to 7 cases per group, and the lumbar skin and muscle of each rat were dissected to expose the L5 and L6 […] under inhalation anesthesia with isoflurane. After ligating the L5 and L6 spinal nerves with silk suture, the wound of each rat was sutured. Thus, a nerve ligation group was prepared. The group in which the nerve was exposed but not ligated was determined to be a sham surgery group.
Allodynia observed in spinal nerve ligation model rats was measured using a von Frey filaments according to a method described in a known publication (Chaplan et al., J. Neurosci. Methods, 1994, vol. 53, p. 55) and a 50% response threshold (g) was determined. Eight days after the ligation surgery, allodynia of the nerve ligation group was measured before oral administration of Form A crystal of compound (I). Rats with a 50% response threshold (average value of the right hind paw and the left hind paw) of 2 g to less than 6 g were considered to have developed allodynia. The rats were divided as neuropathic pain model rats into groups such that there was no significant difference in the 50% response threshold between groups. Allodynia was measured 3 hours after the oral administration of Form A crystal of compound (I), and the analgesic effect was evaluated. Pregabalin was used as a positive control.
Form A crystal of compound (I) was dissolved in water for injection (distilled water) to result in concentrations of 5, 10, and 20 mg/mL, and orally administered in a dose volume of 1 mL per kg body weight. Pregabalin was dissolved in water for injection (distilled water) to result in a concentration of 10 mg/mL and orally administered in a dose volume of 1 mL per kg of body weight. Water for injection (distilled water) was orally administered to the sham surgery group. A group in which water for injection (distilled water) was orally administered to rats in the nerve ligation group was defined as a negative control group.
The horizontal axis represents the solution to be administered in each group, namely, the nerve ligation group or sham surgery group, and the vertical axis represents the 50% response threshold (g) (mean±standard error, n=5 to 7). […]

fibromyalgia model rats = experiment: Analgesic effect on allodynia in fibromyalgia model rats (von Frey, 50% response threshold); assay type: in vivo, rat; settings: oral 10 mg/kg, measured 3 hours after administration, Day 7, compared to negative control group
Procedure: The analgesic effect of the crystal of compound (I) or the pharmacologically acceptable salt thereof against fibromyalgia syndrome was evaluated using fibromyalgia model rats (Sluka et al., Journal of Pharmacology and Experimental Therapeutics, 2002, vol. 302, pp. 1146-1150; Nagakura et al., Pain, 2009, vol. 146, pp. 26-33; Sluka et al., Pain, 2009, vol. 146, pp. 3-4). Form A crystal of compound (I) was used as a crystal of compound (I) or the pharmacologically acceptable salt thereof for evaluation.
The above model rats were prepared as follows. In experiments, 6-to 7-week-old SD male rats were used for 5 or 6 cases per group. 100 μL of acidic physiological saline adjusted to pH 4.0 was administered twice to the gastrocnemius muscle of the right hind paw of each rat (the day of the administration of acidic physiological saline was defined as Day 1 after the start of the experiment, and single dose administrations were carried out on Days 1 and 6 after the start of the experiment) under inhalation anesthesia with isoflurane. The thus prepared group was determined to be an acidic physiological saline group. As a control for the model, a group treated with a physiological saline instead of an acidic physiological saline was determined to be a physiological saline group.
Allodynia observed in fibromyalgia model rats was measured using a von Frey filaments according to a method described in a known publication (Chaplan et al., Journal of Neuroscience Methods, 1994, vol. 53, pp. 55-63) and a 50% response threshold (g) was determined. On Day 7 after the start of the experiment, allodynia was measured 3 hours after oral administration of Form A crystal of compound (I), and the analgesic effect was evaluated. Allodynia of the acidic physiological saline group was measured before oral administration of Form A crystal of compound (I). […] Allodynia was measured 3 hours after the oral administration of the crystal of compound (I), and the analgesic effect was evaluated. […]

[2] = Evaluation of hygroscopicity (equilibrium moisture measurement); assay type: physicochemical; settings: 30° C.
Procedure: Equilibrium moisture measurement was performed on Form A crystal and the amorphous matter of compound (I) under the following conditions using a fully automated symmetric vapor sorption analyzer (TA Instruments Inc.; VTI-SA+). […] The change in appearance was also observed.

[3] = Evaluation of storage stability, Form A crystal versus amorphous matter (HPLC purity); assay type: physicochemical; settings: airtight state
[4] = Dissolution of amorphous matter in various solvents (selection of crystallization solvents); assay type: physicochemical
Procedure: The amorphous matter (10 mg) of compound (I) was weighed into a borosilicate glass vial, each solvent in Table 3 was added at the corresponding amount of solvent added in Table 3, and confirmed whether or not the amorphous matter was dissolved. […] Subsequently, the vial was shaken at room temperature in an airtight state for 7 days. However, no solid precipitated in either case. […] It was therefore judged that they were unsuitable as a crystallization solvent.

[5] = Evaluation of solubility in Japanese Pharmacopoeia test fluids; assay type: physicochemical; settings: aqueous buffer, thermodynamic from solid; 2nd fluid for disintegration test of the Japanese Pharmacopoeia 16th edition (pH 6.8), 37° C., 30 minutes; read-out: Solubility (37° C.)
Procedure: Form A crystal of compound (I) (100 mg) was weighed into a borosilicate glass vial, and the 1st fluid for disintegration test/1st fluid for dissolution test of the Japanese Pharmacopoeia 16th edition (pH 1.2)(1 mL) or the 2nd fluid for disintegration test of the Japanese Pharmacopoeia 16th edition (pH 6.8)(1 mL) was added in a temperature and humidity test chamber (Amefrec Co., Ltd.; NO DOORα) adjusted to 37° C., followed by stirring. Form B crystal of ethane disulfonate of compound (I) (10 mg) was weighed into a borosilicate glass vial, and the 2nd fluid for disintegration test of the Japanese Pharmacopoeia 16th edition (pH 6.8) (0.1 mL) was added in a temperature and humidity test chamber (Amefrec Co., Ltd.; NO DOORα) adjusted to 37° C., followed by stirring. After 30 minutes, the inside of each vial was visually checked, and it was confirmed that each crystal was completely dissolved.

[6] = 40° C., relative humidity 75%, 8 weeks

For CC(C)C[C@H](CN)CC(=O)O [pregabalin, reference compound], the “improvement of allodynia (50% response threshold)” value [1] was “significant improvement” and the “improvement of allodynia (50% response threshold)” value (fibromyalgia model rats) was “significant improvement”.
For CN(C)C1CCN(C(=O)C[C@H](O)c2nccn2C)CC1 [Amorphous matter, (S)-1-(4-(dimethylamino)piperidin-1-yl)-3-hydroxy-3-(1-methyl-1H-imidazol-2-yl)propan-1-one], the “relative humidity at which the substance deliquesced” value [2] was “less than 5%”, the Change in appearance ([2]; humidification, listed as amorphous matter) was “turned into oil matter” and the “Chemical purity, After storage” value [3, 6] was 97.2%. The “Decomposition product increased by not less than 0.15% after storage” value [3, 6] was 4 different, the “Optical purity, After storage” value [3, 6] was 98.7 % ee and the “Chemical purity, After storage” value ([3]; 60° C., 4 weeks) was 91.5%. The “Decomposition product increased by not less than 0.15% after storage” value ([3]; 60° C., 4 weeks) was 7 different, the “Optical purity, After storage” value ([3]; 60° C., 4 weeks) was 98.9 % ee and the Appearance of solution ([4]; 1-Butanol, 0.02 mL added, 500 mg/mL) was “Soluble”. For the same molecule, the Appearance of solution ([4]; 1-Propanol, 0.02 mL added, 500 mg/mL) was “Soluble”, the Appearance of solution ([4]; 2-Butanone, 0.02 mL added, 500 mg/mL) was “Soluble” and the Appearance of solution ([4]; 2-Propanol, 0.005 mL added, 2000 mg/mL) was “Soluble”. For the same molecule, the Appearance of solution ([4]; 2-Propanol, 0.02 mL added, 500 mg/mL) was “Soluble”, the Appearance of solution ([4]; 4-Methyl-2-pentanone, 0.02 mL added, 500 mg/mL) was “Soluble” and the Appearance of solution ([4]; Acetone, 0.01 mL added, 1000 mg/mL) was “Soluble”. For the same molecule, the Appearance of solution ([4]; Acetone, 0.02 mL added, 500 mg/mL) was “Soluble”, the Appearance of solution ([4]; Acetonitrile, 0.005 mL added, 2000 mg/mL) was “Soluble” and the Appearance of solution ([4]; Acetonitrile, 0.02 mL added, 500 mg/mL) was “Soluble”. For the same molecule, the Appearance of solution ([4]; Chlorobenzene, 0.02 mL added, 500 mg/mL) was “Soluble”, the Appearance of solution ([4]; Chloroform, 0.005 mL added, 2000 mg/mL) was “Soluble” and the Appearance of solution ([4]; Chloroform, 0.02 mL added, 500 mg/mL) was “Soluble”. The Appearance of solution ([4]; Cyclohexane, 0.02 mL added, 500 mg/mL) was “Insoluble”, the Appearance of solution ([4]; Cyclohexane, 3 mL added, 3 mg/mL) was “not dissolved at all” and the Appearance of solution ([4]; Cyclohexane, 3 mL added, 3 mg/mL, listed as amorphous matter of compound (I)) was “Insoluble”. For the same molecule, the Appearance of solution ([4]; Ethanol, 0.02 mL added, 500 mg/mL) was “Soluble”, the Appearance of solution ([4]; Ethyl acetate, 0.005 mL added, 2000 mg/mL) was “Soluble” and the Appearance of solution ([4]; Ethyl acetate, 0.01 mL added, 1000 mg/mL) was “Soluble”. The Appearance of solution ([4]; Ethyl acetate, 0.02 mL added, 500 mg/mL) was “Soluble”, the Appearance of solution ([4]; Ethyl formate, 0.02 mL added, 500 mg/mL) was “Soluble” and the Appearance of solution ([4]; Heptane, 0.02 mL added, 500 mg/mL) was “Insoluble”. For the same molecule, the Appearance of solution ([4]; Heptane, 3 mL added, 3 mg/mL) was “not dissolved at all”, the Appearance of solution ([4]; Heptane, 3 mL added, 3 mg/mL, listed as amorphous matter of compound (I)) was “Insoluble” and the Appearance of solution ([4]; Isobutyl acetate, 0.02 mL added, 500 mg/mL) was “Soluble”. The Appearance of solution ([4]; Isopropyl acetate, 0.02 mL added, 500 mg/mL) was “Soluble”, the Appearance of solution ([4]; Methanol, 0.005 mL added, 2000 mg/mL) was “Soluble” and the Appearance of solution ([4]; Methanol, 0.02 mL added, 500 mg/mL) was “Soluble”. For the same molecule, the Appearance of solution ([4]; Methyl acetate, 0.02 mL added, 500 mg/mL) was “Soluble”, the Appearance of solution ([4]; Tetrahydrofuran, 0.01 mL added, 1000 mg/mL) was “Soluble” and the Appearance of solution ([4]; Tetrahydrofuran, 0.02 mL added, 500 mg/mL) was “Soluble”. For the same molecule, the Appearance of solution ([4]; Toluene, 0.005 mL added, 2000 mg/mL) was “Soluble”, the Appearance of solution ([4]; Toluene, 0.02 mL added, 500 mg/mL) was “Soluble” and the Appearance of solution ([4]; Water, 0.02 mL added, 500 mg/mL) was “Soluble”. For the same molecule, the “concentration at which completely dissolved” value ([4]; each solvent in Table 3 (text summary; cyclohexane and heptane excepted)) was ≥ 500000 µg/mL.
With CN(C)C1CCN(C(=O)C[C@H](O)c2nccn2C)CC1 [Form B crystal of ethane disulfonate, (S)-1-(4-(dimethylamino)piperidin-1-yl)-3-hydroxy-3-(1-methyl-1H-imidazol-2-yl)propan-1-one] the solubility at 30 min [5] was > 100 mg/mL.
